# Laboratory results published in ChEMBL document CHEMBL1201862, “PubChem BioAssay data set” (2004).
#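 96-well plates; 48 h exposure; 5 concentrations. Endpoints by linear interpolation between flanking doses. Not reached: highest tested concentration assigned. GI50 = concentration required for 50% inhibition of growth.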 Activity calls are given as the source filed them. No stated cut-off is given here; in the data, active = GI50 up to about 1.1 µM and inactive = higher.
# Assays:
# Assay in all cases: NCI-60 cell line screen, 48 h
# [1] = test system: A498
# [2] = test system: HOP-18
# [3] = test system: SF-295
# [4] = test system: NCI-H522
# [5] = test system: RXF 393
# [6] = test system: HCT-116
# [7] = test system: OVCAR-8
# [8] = test system: SNB-78
# [9] = test system: SNB-19
# [10] = test system: NCI-H23
# [11] = test system: OVCAR-5
# [12] = test system: KM12
# [13] = test system: K562
# [14] = test system: SK-OV-3
# [15] = test system: HT-29
# [16] = test system: SNB-75
# [17] = test system: UACC-62
# [18] = test system: SR
# [19] = test system: RXF 631
# [20] = test system: MOLT-4
# [21] = test system: LOX IMVI
# [22] = test system: UACC-257
# [23] = test system: CCRF-CEM
# [24] = test system: Malme-3M
# [25] = test system: HOP-92
# [26] = test system: CAKI-1
# [27] = test system: SK-MEL-2
# [28] = test system: DMS-273
# [29] = test system: SW-620
# [30] = test system: LXFL 529
# [31] = test system: ACHN
# [32] = test system: EKVX
# [33] = test system: HOP-62
# [34] = test system: A549
# [35] = test system: HCC 2998
# [36] = test system: SK-MEL-5
# [37] = test system: M14
# [38] = test system: HCT-15
# [39] = test system: M19-MEL
# [40] = test system: IGROV-1
# [41] = test system: HL-60
# [42] = test system: SK-MEL-28
# [43] = test system: SF-539
# [44] = test system: DLD-1
# [45] = test system: OVCAR-3
# [46] = test system: RPMI-8226
# [47] = test system: UO-31
# [48] = test system: OVCAR-4
# [49] = test system: KM-20L2
# [50] = test system: 786-0
# [51] = test system: NCI-H460
# [52] = test system: TK-10
# [53] = test system: NCI-H226
# [54] = test system: COLO 205
# [55] = test system: U-251
# [56] = test system: SF-268
# [57] = test system: SN12C
# [58] = test system: DMS-114
smiles,measurement,setting,value
O=C(NCc1ccccc1)C1C(=O)C(=O)N(Cc2ccccc2)C1=O (stereo not drawn),GI50,[1],> 100 µM (inactive)
same,GI50,[2],> 100 µM (inactive)
same,GI50,[3],> 100 µM (inactive)
same,GI50,[4],> 100 µM (inactive)
same,GI50,[5],> 100 µM (inactive)
same,GI50,[6],> 100 µM (inactive)
same,GI50,[7],> 100 µM (inactive)
same,GI50,[8],> 100 µM (inactive)
same,GI50,[9],> 100 µM (inactive)
same,GI50,[10],> 100 µM (inactive)
same,GI50,[11],> 100 µM (inactive)
same,GI50,[12],> 100 µM (inactive)
same,GI50,[13],> 100 µM (inactive)
same,GI50,[14],> 100 µM (inactive)
same,GI50,[15],> 100 µM (inactive)
same,GI50,[16],> 100 µM (inactive)
same,GI50,[17],> 100 µM (inactive)
same,GI50,[18],> 100 µM (inactive)
same,GI50,[19],> 100 µM (inactive)
same,GI50,[20],> 100 µM (inactive)
same,GI50,[21],> 100 µM (inactive)
same,GI50,[22],> 100 µM (inactive)
same,GI50,[23],> 100 µM (inactive)
same,GI50,[24],> 100 µM (inactive)
same,GI50,[25],> 100 µM (inactive)
same,GI50,[26],0.0113 µM (active)
same,GI50,[27],> 100 µM (inactive)
same,GI50,[28],> 100 µM (inactive)
same,GI50,[29],> 100 µM (inactive)
same,GI50,[30],> 100 µM (inactive)
same,GI50,[31],> 100 µM (inactive)
same,GI50,[32],> 100 µM (inactive)
same,GI50,[33],> 100 µM (inactive)
same,GI50,[34],> 100 µM (inactive)
same,GI50,[35],> 100 µM (inactive)
same,GI50,[36],> 100 µM (inactive)
same,GI50,[37],> 100 µM (inactive)
same,GI50,[38],> 100 µM
same,GI50,[39],> 100 µM (inactive)
same,GI50,[40],> 100 µM (inactive)
same,GI50,[41],> 100 µM (inactive)
same,GI50,[42],> 100 µM (inactive)
same,GI50,[43],> 100 µM (inactive)
same,GI50,[44],> 100 µM (inactive)
same,GI50,[45],> 100 µM (inactive)
same,GI50,[46],> 100 µM (inactive)
same,GI50,[47],> 100 µM (inactive)
same,GI50,[48],> 100 µM (inactive)
same,GI50,[49],> 100 µM (inactive)
same,GI50,[50],> 100 µM (inactive)
same,GI50,[51],> 100 µM (inactive)
same,GI50,[52],> 100 µM (inactive)
same,GI50,[53],> 100 µM (inactive)
same,GI50,[54],> 100 µM (inactive)
same,GI50,[55],> 100 µM (inactive)
same,GI50,[56],> 100 µM (inactive)
same,GI50,[57],> 100 µM (inactive)
CC[C@@H]1NC(C(=O)OC)Cc2c1[nH]c1ccccc21 (stereo partly drawn),GI50,[1],> 100 µM (inactive)
same,GI50,[2],> 100 µM (inactive)
same,GI50,[3],> 100 µM (inactive)
same,GI50,[6],> 100 µM (inactive)
same,GI50,[7],> 100 µM (inactive)
same,GI50,[8],> 100 µM (inactive)
same,GI50,[9],> 100 µM (inactive)
same,GI50,[10],> 100 µM (inactive)
same,GI50,[11],> 100 µM (inactive)
same,GI50,[12],> 100 µM (inactive)
same,GI50,[13],> 100 µM (inactive)
same,GI50,[14],> 100 µM (inactive)
same,GI50,[15],> 100 µM (inactive)
same,GI50,[16],> 100 µM (inactive)
same,GI50,[17],> 100 µM (inactive)
same,GI50,[18],> 100 µM (inactive)
same,GI50,[19],> 100 µM (inactive)
same,GI50,[20],> 100 µM (inactive)
same,GI50,[21],> 100 µM (inactive)
same,GI50,[22],> 100 µM (inactive)
same,GI50,[23],> 100 µM (inactive)
same,GI50,[24],> 100 µM (inactive)
same,GI50,[25],> 100 µM (inactive)
same,GI50,[26],> 100 µM (inactive)
same,GI50,[58],> 100 µM (inactive)
same,GI50,[27],> 100 µM (inactive)
same,GI50,[28],> 100 µM (inactive)
same,GI50,[29],> 100 µM (inactive)
same,GI50,[30],> 100 µM (inactive)
same,GI50,[31],> 100 µM (inactive)
same,GI50,[32],> 100 µM (inactive)
same,GI50,[34],> 100 µM (inactive)
same,GI50,[35],> 100 µM (inactive)
same,GI50,[36],> 100 µM (inactive)
same,GI50,[37],> 100 µM (inactive)
same,GI50,[38],> 100 µM
same,GI50,[39],> 100 µM (inactive)
same,GI50,[40],> 100 µM (inactive)
same,GI50,[41],> 100 µM (inactive)
same,GI50,[42],> 100 µM (inactive)
same,GI50,[43],> 100 µM (inactive)
same,GI50,[44],> 100 µM (inactive)
same,GI50,[45],> 100 µM (inactive)
same,GI50,[47],> 100 µM (inactive)
same,GI50,[48],> 100 µM (inactive)
same,GI50,[49],> 100 µM (inactive)
same,GI50,[50],> 100 µM (inactive)
same,GI50,[51],27.9 µM (inactive)
same,GI50,[52],> 100 µM (inactive)
same,GI50,[53],> 100 µM (inactive)
same,GI50,[54],> 100 µM (inactive)
same,GI50,[55],> 100 µM (inactive)
same,GI50,[57],> 100 µM (inactive)
CN1C(=O)C2C(C1=O)C1(O)c3ccccc3C2(N)c2ccccc21 (stereo not drawn),GI50,[1],35.2 µM (inactive)
same,GI50,[2],> 100 µM (inactive)
same,GI50,[3],> 100 µM (inactive)
same,GI50,[5],> 100 µM (inactive)
same,GI50,[6],> 100 µM (inactive)
same,GI50,[7],> 100 µM (inactive)
same,GI50,[8],> 100 µM (inactive)
same,GI50,[9],> 100 µM (inactive)
same,GI50,[10],> 100 µM (inactive)
same,GI50,[11],> 100 µM (inactive)
same,GI50,[12],> 100 µM (inactive)
same,GI50,[13],> 100 µM (inactive)
same,GI50,[14],> 100 µM (inactive)
same,GI50,[15],> 100 µM (inactive)
same,GI50,[16],> 100 µM (inactive)
same,GI50,[17],> 100 µM (inactive)
same,GI50,[19],> 100 µM (inactive)
same,GI50,[20],> 100 µM (inactive)
same,GI50,[21],> 100 µM (inactive)
same,GI50,[22],> 100 µM (inactive)
same,GI50,[23],> 100 µM (inactive)
same,GI50,[24],> 100 µM (inactive)
same,GI50,[25],> 100 µM (inactive)
same,GI50,[26],> 100 µM (inactive)
same,GI50,[58],> 100 µM (inactive)
same,GI50,[27],> 100 µM (inactive)
same,GI50,[28],> 100 µM (inactive)
same,GI50,[29],> 100 µM (inactive)
same,GI50,[31],> 100 µM (inactive)
same,GI50,[32],> 100 µM (inactive)
same,GI50,[33],> 100 µM (inactive)
same,GI50,[34],> 100 µM (inactive)
same,GI50,[35],> 100 µM (inactive)
same,GI50,[36],> 100 µM (inactive)
same,GI50,[37],> 100 µM (inactive)
same,GI50,[38],> 100 µM
same,GI50,[39],> 100 µM (inactive)
same,GI50,[40],> 100 µM (inactive)
same,GI50,[41],> 100 µM (inactive)
same,GI50,[42],> 100 µM (inactive)
same,GI50,[43],> 100 µM (inactive)
same,GI50,[44],> 100 µM (inactive)
same,GI50,[45],> 100 µM (inactive)
same,GI50,[47],> 100 µM (inactive)
same,GI50,[48],> 100 µM (inactive)
same,GI50,[50],> 100 µM (inactive)
same,GI50,[51],> 100 µM (inactive)
same,GI50,[52],> 100 µM (inactive)
same,GI50,[53],> 100 µM (inactive)
same,GI50,[54],> 100 µM (inactive)
same,GI50,[55],> 100 µM (inactive)
same,GI50,[56],> 100 µM (inactive)
same,GI50,[57],> 100 µM (inactive)
